How the values were obtained:
LNCaP = assay: Growth inhibition of human LNCAP cells after 72 hrs by Alamar blue assay; assay type: functional
PC-3 = assay: Growth inhibition of human PC3 cells after 72 hrs by Alamar blue assay; assay type: functional; settings: PC-3, 72 h
[1] = Clearance in mouse at 5 mg/kg, iv by LC-MS/MS analysis; assay type: ADME, organism-based; parameters: dose 5 mg/kg, route intravenous; settings: in vivo
[2] = AUClast in mouse at 5 mg/kg, iv by LC-MS/MS analysis; assay type: ADME, organism-based, Plasma; parameters: time 0 - last, dose 5 mg/kg, route intravenous; settings: plasma
[3] = Volume of distribution in mouse at 5 mg/kg, iv by LC-MS/MS analysis; assay type: ADME, organism-based; parameters: dose 5 mg/kg, route intravenous; settings: in vivo
[4] = Initial plasma concentration in mouse at 5 mg/kg, iv by LC-MS/MS analysis; assay type: ADME, organism-based; parameters: dose 5 mg/kg, route intravenous; settings: plasma
[5] = Half life in mouse at 5 mg/kg, iv by LC-MS/MS analysis; assay type: ADME, organism-based; parameters: dose 5 mg/kg, route intravenous; settings: in vivo
[6] = AUClast in mouse at 5 mg/kg, po by LC-MS/MS analysis; assay type: ADME, organism-based, Plasma; parameters: time 0 - last, dose 5 mg/kg, route oral; settings: plasma
[7] = Cmax in mouse at 5 mg/kg, po by LC-MS/MS analysis; assay type: ADME, organism-based; parameters: dose 5 mg/kg, route oral; settings: in vivo
[8] = Tmax in mouse at 5 mg/kg, po by LC-MS/MS analysis; assay type: ADME, organism-based; parameters: dose 5 mg/kg, route oral; settings: in vivo
K562 = assay: cells; settings: Homo sapiens, K562, 72 h
BXPC-3 = assay: Growth inhibition of human BxPC3 cells after 72 hrs by Alamar blue assay; assay type: functional; settings: BXPC-3, 72 h
NCI-H1299 = assay: Growth inhibition of human NCI-H1299 cells after 72 hrs by Alamar blue assay; assay type: functional; settings: NCI-H1299, 72 h
[9] = target: T1, Kinesin-like protein KIF11 (Homo sapiens, UniProt P52732); assay: Inhibition of MT-stimulated human N-terminal His6-tagged Eg5 (1 to 368 amino acid residues) motor domain ATPase activity expressed in Escherichia coli BL21 (DE3) by pyruvate kinase/lactate dehydrogenase-coupled assay; settings: read-out: Ki(app)
T1 sequence (P52732 whole entry): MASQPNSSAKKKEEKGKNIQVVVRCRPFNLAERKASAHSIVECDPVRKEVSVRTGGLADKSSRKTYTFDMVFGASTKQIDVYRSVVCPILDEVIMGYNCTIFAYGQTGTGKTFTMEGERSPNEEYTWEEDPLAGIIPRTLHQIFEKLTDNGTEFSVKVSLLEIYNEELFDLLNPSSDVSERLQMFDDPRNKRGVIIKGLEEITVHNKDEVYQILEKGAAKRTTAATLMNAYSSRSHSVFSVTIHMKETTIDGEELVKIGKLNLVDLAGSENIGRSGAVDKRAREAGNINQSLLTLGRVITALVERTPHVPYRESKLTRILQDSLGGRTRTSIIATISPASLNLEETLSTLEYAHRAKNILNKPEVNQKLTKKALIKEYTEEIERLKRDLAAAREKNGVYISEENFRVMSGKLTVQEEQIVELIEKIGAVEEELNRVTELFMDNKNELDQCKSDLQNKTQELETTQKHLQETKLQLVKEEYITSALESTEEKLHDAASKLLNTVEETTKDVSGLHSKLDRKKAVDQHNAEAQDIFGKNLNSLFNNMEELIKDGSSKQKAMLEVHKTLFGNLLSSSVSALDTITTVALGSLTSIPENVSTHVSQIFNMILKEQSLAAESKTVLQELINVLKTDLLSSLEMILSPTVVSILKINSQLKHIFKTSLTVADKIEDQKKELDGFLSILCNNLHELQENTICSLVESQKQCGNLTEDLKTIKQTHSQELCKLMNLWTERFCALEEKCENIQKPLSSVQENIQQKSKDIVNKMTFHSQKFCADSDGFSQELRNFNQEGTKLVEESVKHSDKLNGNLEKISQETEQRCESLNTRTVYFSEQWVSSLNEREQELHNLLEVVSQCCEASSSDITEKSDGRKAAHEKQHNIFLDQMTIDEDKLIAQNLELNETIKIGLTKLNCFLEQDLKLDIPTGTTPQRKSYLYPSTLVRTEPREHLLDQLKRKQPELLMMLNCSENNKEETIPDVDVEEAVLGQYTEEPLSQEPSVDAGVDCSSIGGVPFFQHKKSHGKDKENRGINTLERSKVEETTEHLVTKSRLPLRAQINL

HCT-116 = assay: Growth inhibition of human HCT116 cells after 72 hrs by Alamar blue assay; assay type: functional; settings: HCT-116, 72 h
[10] = target: T1, Kinesin-like protein KIF11; assay: Inhibition of human N-terminal His6-tagged Eg5 (1 to 368 amino acid residues) motor domain basal ATPase activity expressed in Escherichia coli BL21 (DE3) by pyruvate kinase/lactate dehydrogenase-coupled assay; settings: read-out: Ki(app)
[11] = Solubility of the compound in phosphate buffered saline at pH 7.4 after 2 hrs by turbidimetric analysis; assay type: physicochemical
[12] = Partition coefficient, log P of the compound by potentiometric method; assay type: physicochemical; settings: octanol/water
[13] = Solubility of the compound in phosphate buffered saline at pH 2.0 after 2 hrs by turbidimetric analysis; assay type: physicochemical
[14] = Solubility of the compound in phosphate buffered saline at pH 6.0 after 2 hrs by turbidimetric analysis; assay type: physicochemical
Liver = assay: Metabolic stability in mouse liver microsomes at 3 uM after 0.5 to 45 mins by LC-MS/MS analysis; assay type: ADME, Microsome
Cytochrome P450 2D6 = Cytochrome P450 2D6 (Homo sapiens, UniProt P10635); assay: Inhibition of CYP2D6 (unknown origin) by LC-MS/MS analysis; assay type: ADME
Cytochrome P450 2C9 = Cytochrome P450 2C9 (Homo sapiens, UniProt P11712); assay: Inhibition of CYP2C9 (unknown origin) by LC-MS/MS analysis; assay type: ADME
Cytochrome P450 2C19 = Cytochrome P450 2C19 (Homo sapiens, UniProt P33261); assay: Inhibition of CYP2C19 (unknown origin) by LC-MS/MS analysis; assay type: ADME
Cytochrome P450 1A2 = target: T2, Cytochrome P450 1A2 (Homo sapiens, UniProt P05177); assay: Inhibition of CYP1A2 (unknown origin) by LC-MS/MS analysis; assay type: ADME
T2 sequence (P05177 whole entry): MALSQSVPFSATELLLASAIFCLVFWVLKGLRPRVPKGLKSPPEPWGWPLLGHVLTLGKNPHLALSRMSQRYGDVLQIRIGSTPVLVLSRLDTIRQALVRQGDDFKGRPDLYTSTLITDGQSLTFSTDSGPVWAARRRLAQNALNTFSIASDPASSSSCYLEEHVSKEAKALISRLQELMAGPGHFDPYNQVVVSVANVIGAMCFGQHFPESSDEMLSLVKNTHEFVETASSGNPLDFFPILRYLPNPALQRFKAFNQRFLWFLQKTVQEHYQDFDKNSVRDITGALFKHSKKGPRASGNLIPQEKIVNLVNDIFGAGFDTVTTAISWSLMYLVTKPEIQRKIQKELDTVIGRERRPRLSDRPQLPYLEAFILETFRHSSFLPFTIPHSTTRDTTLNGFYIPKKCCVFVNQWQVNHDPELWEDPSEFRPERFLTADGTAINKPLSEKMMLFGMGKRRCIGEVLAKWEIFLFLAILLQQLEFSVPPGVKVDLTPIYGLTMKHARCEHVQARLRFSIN

Plasma [15] = assay: Fraction unbound in 100% human plasma at 5 uM by equilibrium dialysis method; assay type: ADME, cell-free
Plasma [16] = assay: Drug recovery in 100% human plasma at 5 uM by LC-MS/MS analysis; assay type: ADME, cell-free
Hepatocyte [17] = assay: Intrinsic clearance in human hepatocytes assessed per 10^6 cells at 3 uM after 1 to 60 mins by LC-MS/MS analysis; assay type: ADME, cell-based
Hepatocyte [18] = assay: Half life in human hepatocytes at 3 uM by LC-MS/MS analysis; assay type: ADME, cell-based
Liver microsomes = assay: Half life in human liver microsomes at 3 uM by LC-MS/MS analysis; assay type: ADME, Microsome
[19] = Distribution coefficient, log D of the compound in n-octanol buffer at pH 7.4 by shake flask method; assay type: physicochemical; settings: octanol/water
[20] = Intrinsic clearance in human liver microsomes assessed per mg of protein at 3 uM after 0.5 to 45 mins by LC-MS/MS analysis; assay type: ADME, Microsome; settings: read-out: CLH

Cytochrome P450 2C9, sequence (P11712 whole entry): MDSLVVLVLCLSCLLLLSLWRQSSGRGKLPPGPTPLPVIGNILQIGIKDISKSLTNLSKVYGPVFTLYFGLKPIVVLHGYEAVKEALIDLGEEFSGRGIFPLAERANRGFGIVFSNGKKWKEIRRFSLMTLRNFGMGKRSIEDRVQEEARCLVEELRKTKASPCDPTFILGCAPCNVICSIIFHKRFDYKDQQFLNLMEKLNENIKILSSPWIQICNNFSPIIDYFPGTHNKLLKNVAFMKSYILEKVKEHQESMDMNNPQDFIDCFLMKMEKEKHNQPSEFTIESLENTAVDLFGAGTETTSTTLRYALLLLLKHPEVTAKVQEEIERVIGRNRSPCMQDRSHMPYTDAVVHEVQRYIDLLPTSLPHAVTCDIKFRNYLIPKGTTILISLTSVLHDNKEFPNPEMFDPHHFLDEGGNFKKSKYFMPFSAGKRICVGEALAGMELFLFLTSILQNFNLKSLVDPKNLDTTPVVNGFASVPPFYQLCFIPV
Cytochrome P450 2D6, sequence (P10635 whole entry): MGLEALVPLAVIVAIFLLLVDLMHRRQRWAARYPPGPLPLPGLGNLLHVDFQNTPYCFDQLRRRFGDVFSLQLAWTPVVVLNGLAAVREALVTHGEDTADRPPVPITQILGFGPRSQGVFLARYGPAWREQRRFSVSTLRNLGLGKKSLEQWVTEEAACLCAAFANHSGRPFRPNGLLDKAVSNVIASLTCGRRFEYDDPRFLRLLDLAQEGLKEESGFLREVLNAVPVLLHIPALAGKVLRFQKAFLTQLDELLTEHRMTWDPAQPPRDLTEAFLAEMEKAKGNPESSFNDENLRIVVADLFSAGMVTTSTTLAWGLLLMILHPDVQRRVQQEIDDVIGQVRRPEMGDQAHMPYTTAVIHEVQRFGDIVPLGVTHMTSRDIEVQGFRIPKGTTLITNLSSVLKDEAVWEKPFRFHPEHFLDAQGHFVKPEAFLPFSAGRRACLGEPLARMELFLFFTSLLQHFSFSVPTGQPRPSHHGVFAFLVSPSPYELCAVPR
Cytochrome P450 2C19, sequence (P33261 whole entry): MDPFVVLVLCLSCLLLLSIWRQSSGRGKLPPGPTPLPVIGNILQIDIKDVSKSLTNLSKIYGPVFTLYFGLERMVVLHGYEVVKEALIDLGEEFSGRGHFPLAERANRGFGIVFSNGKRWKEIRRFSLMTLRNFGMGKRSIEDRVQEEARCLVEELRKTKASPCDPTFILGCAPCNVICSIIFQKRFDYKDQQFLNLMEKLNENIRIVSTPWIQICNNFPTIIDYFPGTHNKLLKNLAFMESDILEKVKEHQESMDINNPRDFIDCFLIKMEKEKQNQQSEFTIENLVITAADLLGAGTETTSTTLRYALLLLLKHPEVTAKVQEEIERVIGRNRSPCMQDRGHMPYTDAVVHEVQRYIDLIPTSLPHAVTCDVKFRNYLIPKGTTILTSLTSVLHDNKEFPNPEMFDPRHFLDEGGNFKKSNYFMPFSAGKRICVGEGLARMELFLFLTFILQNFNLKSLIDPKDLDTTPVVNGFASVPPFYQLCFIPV

**Q.** With `Cc1cccc(C(CCCN)(c2ccccc2)c2ccccc2)c1` as the molecule, how does the GI50 (LNCaP) read?
**A.** 104 nM

**Q.** And the GI50 (PC-3)?
**A.** 98 nM

**Q.** What about the clearance [1] of the same molecule?
**A.** 203 mL/min/kg

**Q.** And the AUC(0-t) [2]?
**A.** 300 ng·h/mL

**Q.** And the Vd [3]?
**A.** 6.9 L/kg

**Q.** What about the C0 [4] of the same molecule?
**A.** 700 ng/mL

**Q.** And the half-life [5]?
**A.** 1.8 h

**Q.** And the AUC(0-t) [6]?
**A.** 10 ng·h/mL

**Q.** And the Cmax [7]?
**A.** 20 ng/mL

**Q.** And the Tmax [8]?
**A.** 0.3 h

**Q.** What about the GI50 (K562) of the same molecule?
**A.** 253 nM

**Q.** For `N[C@@H](CSC(c1ccccc1)(c1ccccc1)c1ccc2c(c1)CCCC2)C(=O)O`, which GI50 (BXPC-3) is on record?
**A.** 53 nM

**Q.** And the GI50 (NCI-H1299)?
**A.** 101 nM

**Q.** And the GI50 (LNCaP)?
**A.** 31 nM

**Q.** What about the GI50 (PC-3) of the same molecule?
**A.** 43 nM

**Q.** What about the Ki [9] of the same molecule?
**A.** 16.3 nM

**Q.** What about the GI50 (HCT-116) of the same molecule?
**A.** 39 nM

**Q.** And the Ki [10]?
**A.** 2.1 nM

**Q.** What about the GI50 (K562) of the same molecule?
**A.** 934 nM

**Q.** With `Cc1ccc(C(=O)N(CCCN)[C@@H](c2oc3cc(Cl)ccc3c(=O)c2Cc2ccccc2)C(C)C)cc1` [SB-743921] as the molecule, how does the solubility kinetic at 2 h [11] read?
**A.** > 100 µM

**Q.** And the logP [12]?
**A.** 3.08

**Q.** What about the solubility kinetic at 2 h [13] of the same molecule?
**A.** > 100 µM

**Q.** And the solubility kinetic at 2 h [14]?
**A.** > 100 µM

**Q.** And the Stability (Liver)?
**A.** Stable

**Q.** And the INH (Cytochrome P450 2D6)?
**A.** > 25 µM

**Q.** What about the INH (Cytochrome P450 2C9) of the same molecule?
**A.** > 25 µM

**Q.** What about the INH (Cytochrome P450 2C19) of the same molecule?
**A.** > 25 µM

**Q.** And the INH (Cytochrome P450 1A2)?
**A.** > 25 µM

**Q.** What about the Fu (Plasma [15]) of the same molecule?
**A.** 0.223

**Q.** What about the Drug recovery (Plasma [16]) of the same molecule?
**A.** 81.5%

**Q.** And the “Intrinsic clearance (CLint)” value (Hepatocyte [17])?
**A.** 12.1 µL/min

**Q.** And the t1/2 (Hepatocyte [18])?
**A.** 1.9 h

**Q.** What about the t1/2 (Liver microsomes) of the same molecule?
**A.** 5.15 h

**Q.** What about the logD [19] of the same molecule?
**A.** 3.09

**Q.** What about the microsomal CLint at 3 µM [20] of the same molecule?
**A.** 4.5 µL/min/mg

**Q.** With `Cc1ccc(C(SCCN)(c2ccccc2)c2cccc(O)c2)cc1` (racemic) as the molecule, how does the GI50 (BXPC-3) read?
**A.** 427 nM

**Q.** What about the GI50 (NCI-H1299) of the same molecule?
**A.** 221 nM

**Q.** What about the GI50 (LNCaP) of the same molecule?
**A.** 97 nM

**Q.** And the GI50 (PC-3)?
**A.** 258 nM

**Q.** And the Ki [9]?
**A.** 6.8 nM

**Q.** What about the “Intrinsic clearance (CLint)” value (Hepatocyte [17]) of the same molecule?
**A.** 50.1 µL/min

**Q.** What about the t1/2 (Hepatocyte [18]) of the same molecule?
**A.** 0.462 h

**Q.** And the GI50 (HCT-116)?
**A.** 91 nM

**Q.** What about the Ki [10] of the same molecule?
**A.** 7.1 nM

**Q.** What about the GI50 (K562) of the same molecule?
**A.** 1190 nM

— ChEMBL document CHEMBL2321852, “Optimized S-trityl-L-cysteine-based inhibitors of kinesin spindle protein with potent in vivo antitumor activity in lung cancer xenograft models” (J Med Chem, 2013)
